The nature of data set [1]: PAMPA (parallel artificial membrane permeability assay). The data set is classed as in vitro ADME. To be noted: PAMPA. Summed up:
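Artificial membrane was 10% (w/v) egg lecithin plus 0.5% (w/v) cholesterol in dodecane on a PVDF filter. A 10 mM DMSO stock was added at 0.5% (v/v) to donor buffer (50 mM MOPSO, pH 6.5, 5.0% glycocholic acid). After 18 h at 37 °C, LC/MS or LC/UV gave donor and acceptor levels for Pe.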
(In PAMPA a lipid-coated filter parts donor from acceptor wells.)

The nature of data set [2]: Metabolic stability in human hepatic microsome. The note with it: microsomes. The data set is classed as in vitro ADME.
Data set [3] is described as follows: Mouse PK test of peptides (intravenous and oral administration). The note with it: male, C57BL/6J, in vivo, 20 mg/kg.
The mark [4] stands for this setting: membrane permeation rate (Pe), 50 mM MOPSO buffer pH 6.5 with 5.0% glycocholic acid, 37° C., 18 hours, read-out: iPAMPA Pe.
The mark [5] stands for this setting: pH 7.4, human hepatic microsome, NADPH(+), read-out: CL NADPH(+).

Like-named read-outs stand apart in the source and are kept apart here. Starred links: 1 amine or outer side, 2 acyl side, 3 side chain; linkers in the order of their positions; H or OH if unused. Positions of bridges follow the written chain, without caps; N, C: chain ends. Non-standard residues stand in square brackets, D forms with d. Residues, ends and D or L forms follow the SMILES beside them. *: point of attachment. NMeF = CN[C@@H](Cc1ccccc1)C(=O)O; NMeβAla = CN(CCC(=O)[*:2])[*:1]; NMeL = CN[C@@H](CC(C)C)C(=O)O; NMeA = CN[C@@H](C)C(=O)O; Piperidide = C1CCN(*)CC1; dNMeA = CN[C@H](C)C(=O)O; Sar = CNCC(=O)O; tBu = CC(C)(C)*

The record followed here is patent publication US9409952B2, “Peptide-compound cyclization method” (Chugai Seiyaku Kabushiki Kaisha, priority 2011, dated 2016).

As to `CC(C)C[C@@H]1NC(=O)[C@H](Cc2ccccc2)N(C)C(=O)[C@H](Cc2ccccc2)N(C)C(=O)[C@H](CC(C)C)NC(=O)[C@H](C)N(C)C(=O)[C@H]([C@@H](C)O)NC(=O)[C@H](C)N(C)C(=O)C[C@@H](C(=O)N2CCCCC2)NC(=O)[C@H](CC(C)C)N(C)C1=O` [DP-125] ([NMeA]T[NMeA]L[NMeF][NMeF]L[NMeL]D-Piperidide; lactam N-9), in data set [1] (setting [4]), the Papp at 18 hours, 50 µM amounted to 55 ×10⁻⁶ cm/s. For the same compound, in data set [2] (setting [5]), the microsomal CLint at 1 uM is 189 µL/min/mg. In addition, in data set [3] (iv), the AUC – broadly, concentration integrated over time – amounted to 35400 ng·h/mL; the C0 turned out to be 46400 ng/mL; the Vd worked out at 0.545 L/kg; the clearance turned out to be 9.49 mL/min/kg. For the same compound, the half-life – broadly, the time needed for the level to fall by half in the phase considered – in data set [3] (iv) was 1.44 h. Also, in data set [3] (po), the AUC turned out to be 12100 ng·h/mL; the CL/F – broadly, clearance divided by bioavailability, as obtained after extravascular dosing – was determined as 27.5 mL/min/kg; the peak concentration (Cmax) (usually the highest concentration seen after dosing) came to 3090 ng/mL; the time of peak concentration (Tmax) (in general, the time at which the peak concentration occurs) was 3.5 h. For the same compound, the bioavailability (commonly the share of a dose that reaches the circulation, judged against a reference dose that is usually intravenous) in data set [3] (po) is 34.6%.
On to `CC[C@H](C)[C@H](NC(=O)[C@@H]1CC(=O)N[C@@H](Cc2ccccc2)C(=O)N(C)[C@@H](CC(C)C)C(=O)N[C@@H](C)C(=O)N(C)[C@@H](CC(C)C)C(=O)N[C@@H](COC(C)(C)C)C(=O)N(C)[C@@H](CC(C)C)C(=O)N(C)[C@@H](CC(C)C)C(=O)N[C@@H]([C@@H](C)O)C(=O)N[C@@H](Cc2ccccc2)C(=O)N(C)[C@@H](Cc2ccccc2)C(=O)N(C)[C@@H](C)C(=O)N1)C(=O)N[C@H](C(=O)N1CCCCC1)[C@@H](C)CC` [DP-953] (F[NMeL]A[NMeL]S(tBu)[NMeL][NMeL]TF[NMeF][NMeA]DII-Piperidide; lactam N-12), for which the Papp at 18 hours, 50 µM in data set [1] (setting [4]) turned out to be 0.1 ×10⁻⁶ cm/s. The microsomal CLint at 1 uM in data set [2] (setting [5]) was 8 µL/min/mg.
`CC[C@H](C)[C@H](NC(=O)[C@@H](NC(=O)[C@@H]1CC(=O)N(C)CCC(=O)N[C@@H](Cc2ccccc2)C(=O)N(C)[C@@H](Cc2ccccc2)C(=O)N(C)[C@@H](CC(C)C)C(=O)N[C@@H]([C@@H](C)O)C(=O)N(C)[C@@H](C)C(=O)N(C)[C@@H](CC(C)C)C(=O)N[C@@H](C(C)C)C(=O)N(C)[C@@H](CC(C)C)C(=O)N[C@@H](COC(C)(C)C)C(=O)N(C)[C@@H](CC(C)C)C(=O)N1)C(C)C)C(=O)N1CCCCC1` [DP-954] ([NMeβAla]F[NMeF][NMeL]T[NMeA][NMeL]V[NMeL]S(tBu)[NMeL]DVI-Piperidide; lactam N-12): in data set [1] (setting [4]), the Papp at 18 hours, 50 µM was 0.1 ×10⁻⁶ cm/s. Moreover, the microsomal CLint at 1 uM in data set [2] (setting [5]) was 26 µL/min/mg.
Turning to `CC[C@H](C)[C@H](NC(=O)[C@@H]1CC(=O)N[C@@H](C)C(=O)N[C@@H]([C@@H](C)O)C(=O)N(C)CC(=O)N[C@@H](CC(C)C)C(=O)N2CCC[C@H]2C(=O)N(C)[C@@H](CC(C)C)C(=O)N[C@@H](Cc2ccccc2)C(=O)N(C)[C@@H](Cc2ccccc2)C(=O)N(C)[C@@H](C)C(=O)N(C)[C@@H](CC(C)C)C(=O)N[C@@H](C)C(=O)N(C)[C@@H](CC(C)C)C(=O)N1)C(=O)N1CCCCC1` [DP-955] (AT[Sar]LP[NMeL]F[NMeF][NMeA][NMeL]A[NMeL]DI-Piperidide; lactam N-13), in data set [1] (setting [4]), the Papp at 18 hours, 50 µM was 6.3 ×10⁻⁶ cm/s. The microsomal CLint at 1 uM in data set [2] (setting [5]) came to 30 µL/min/mg.
For `CC[C@H](C)[C@@H]1NC(=O)[C@H](C)N(C)C(=O)[C@H](CC(C)C)N(C)C(=O)[C@H](Cc2ccccc2)NC(=O)[C@H](CC(C)C)N(C)C(=O)[C@H](CC(C)C)N(C)C(=O)[C@H](C)N(C)C(=O)[C@H](Cc2ccccc2)N(C)C(=O)[C@@H](C)N(C)C(=O)C[C@@H](C(=O)N[C@H](C(=O)N2CCCCC2)[C@@H](C)CC)NC(=O)[C@H](CC(C)C)N(C)C(=O)[C@H]([C@@H](C)O)NC(=O)[C@H](CO)NC1=O` [DP-956] ([dNMeA][NMeF][NMeA][NMeL][NMeL]F[NMeL][NMeA]IST[NMeL]DI-Piperidide; lactam N-13) the same measures were 0.58 ×10⁻⁶ cm/s and 40 µL/min/mg.
`CC[C@H](C)[C@@H]1NC(=O)[C@H](CC(C)C)N(C)C(=O)[C@H](CC(C)C)N(C)C(=O)CN(C)C(=O)[C@H]([C@@H](C)O)NC(=O)[C@H](CC(C)C)N(C)C(=O)[C@H](CC(C)C)NC(=O)CCN(C)C(=O)C[C@@H](C(=O)N2CCCCC2)NC(=O)[C@H](C)NC(=O)[C@H](Cc2ccccc2)N(C)C(=O)[C@H](Cc2ccccc2)NC(=O)[C@H](CC(C)C)N(C)C1=O` [DP-957] ([NMeβAla]L[NMeL]T[Sar][NMeL][NMeL]I[NMeL]F[NMeF]AD-Piperidide; lactam N-13): in data set [1] (setting [4]), the Papp at 18 hours, 50 µM was found to be 4 ×10⁻⁶ cm/s. In addition, the microsomal CLint at 1 uM in data set [2] (setting [5]) came to 54 µL/min/mg.
`CC[C@H](C)[C@@H]1NC(=O)CCN(C)C(=O)C[C@@H](C(=O)N2CCCCC2)NC(=O)[C@H](CC(C)C)N(C)C(=O)[C@H](Cc2ccccc2)NC(=O)[C@H](CC(C)C)N(C)C(=O)[C@H](CC(C)C)N(C)C(=O)[C@H](C)N(C)C(=O)[C@H](CC(C)C)N(C)C(=O)[C@H]([C@@H](C)O)NC(=O)[C@H](Cc2ccccc2)N(C)C(=O)[C@H](C)N(C)C(=O)[C@H](CC(C)C)N(C)C1=O` [DP-958] ([NMeβAla]I[NMeL][NMeA][NMeF]T[NMeL][NMeA][NMeL][NMeL]F[NMeL]D-Piperidide; lactam N-13): the Papp at 18 hours, 50 µM in data set [1] (setting [4]) stood at 0.54 ×10⁻⁶ cm/s. For the same compound, the microsomal CLint at 1 uM in data set [2] (setting [5]) was 31 µL/min/mg.
As for `CC[C@H](C)[C@H](NC(=O)[C@H](Cc1ccccc1)N(C)C(=O)[C@H](Cc1ccccc1)N(C)C(=O)[C@@H]1CC(=O)N(C)CCC(=O)N[C@@H]([C@@H](C)CC)C(=O)N(C)[C@@H](Cc2ccccc2)C(=O)N(C)[C@@H](CC(C)C)C(=O)N[C@@H]([C@@H](C)O)C(=O)N(C)CC(=O)N(C)[C@@H](CC(C)C)C(=O)N[C@@H](C(C)C)C(=O)N(C)[C@@H](CC(C)C)C(=O)N1)C(=O)N1CCCCC1` [DP-961] ([NMeβAla]I[NMeF][NMeL]T[Sar][NMeL]V[NMeL]D[NMeF][NMeF]I-Piperidide; lactam N-10), in data set [1] (setting [4]), the Papp at 18 hours, 50 µM was 0.57 ×10⁻⁶ cm/s. For the same compound, in data set [2] (setting [5]), the microsomal CLint at 1 uM was 33 µL/min/mg.
With `CC[C@H](C)[C@@H]1NC(=O)[C@H](C)N(C)C(=O)[C@H](CC(C)C)N(C)C(=O)[C@H](Cc2ccccc2)NC(=O)[C@H](CC(C)C)N(C)C(=O)[C@H](CC(C)C)N(C)C(=O)[C@H](C)N(C)C(=O)[C@H](Cc2ccccc2)N(C)C(=O)[C@@H](C)N(C)C(=O)C[C@@H](C(=O)N[C@H](C(=O)N2CCCCC2)[C@@H](C)CC)NC(=O)[C@H](CC(C)C)N(C)C(=O)[C@H]([C@@H](C)O)NC(=O)[C@H](COC(C)(C)C)NC1=O` [DP-963] ([dNMeA][NMeF][NMeA][NMeL][NMeL]F[NMeL][NMeA]IS(tBu)T[NMeL]DI-Piperidide; lactam N-13), the Papp at 18 hours, 50 µM in data set [1] (setting [4]) amounted to 0.1 ×10⁻⁶ cm/s. In addition, the microsomal CLint at 1 uM in data set [2] (setting [5]) was 18 µL/min/mg.
In data set [1] (pH 6.5), `CC[C@H](C)[C@@H]1NC(=O)[C@H](Cc2cccc(Cl)c2)N(C)C(=O)[C@H](CC(C)C)N(C)C(=O)C[C@@H](C(=O)N2CCCCC2)NC(=O)[C@H](CC(C)C)N(C)C(=O)[C@H](CC(C)C)N(C)C(=O)[C@H](CC(C)C)NC(=O)[C@H](C)N(C)C(=O)[C@@H](NC(=O)[C@H](CC(C)C)N(C)C(=O)[C@@H]2CCCN2C(=O)CO)CCCCNC1=O` [DP-964, ^HOGly-Pro-MeLeu-*Lys-MeAla-Leu-MeLeu-MeLeu-Asp-piperidine-MeLeu-MePhe(3-Cl)-Ile* (cyclized at two * sites)] gave a Papp at 18 hours, 50 µM of 8.9 ×10⁻⁶ cm/s. In addition, the microsomal CLint at 1 uM in data set [2] (human, pH 7.4, CL NADPH(+)) came to 38 µL/min/mg.
